# Tested on: RAW264.7 cells
# Experiment: CS-induced LTB4 production in RAW264.7 culture supernatants (LTB4 EIA)
# Type: cell-based
# Details: RAW264.7 cells pre-treated with 10 μM Zileuton for 1 h, then 120 μg/cm^2 CS for 6 h
# Description: FIG. 10C depicts LTB4 production by cells in vitro, measured in culture supernatants of RAW264.7 cells exposed to 120 μg/cm^2 CS for 6 h in presence of 5-LO inhibitor.
# LKR13 and RAW264.7cells were cultured in DMEM containing 10% FBS. For CS stimulation assays, 0.3 million cells were plated per well of 12-well tissue culture dishes in 400 μl of 1% FBS containing medium. The cells were stimulated for 6 h with 120 μg/cm^2 of CS. Whenever indicated RAW264.7 cells were pre-treated with 10 μM Zileuton (5-LO inhibitor) for 1 h.
# Subcutaneous tumors were homogenized in 500 ul 1×PBS buffer containing 10 uM Indomethacin using Omni GLH general homogenizer. The homogenates were centrifuged at 14000 g for 10 min and LTB4 levels in the supernatants were quantified. The LTB4 levels were normalized to the amount of protein in the supernatants measured by Themo Sceintific Pierce BCA protein assay kit following manufacturer's instructions. LTB4 in the tumor homogenate supernatant was expressed as pg/mg of protein. LTB4 in cell culture supernatants, BALF, air pouch lavage and subcutaneous tumors was measured using LTB4 EIA Kit (Cayman Chemical) according to the manufacturer's instructions. IL-1β in cell culture supernatants was measured using Mouse IL-1β ELISA MAX™ Standard Kit (Biolegend) according to the manufacturer's instructions.
compound,measurement,value
CC(c1cc2ccccc2s1)N(O)C(N)=O (stereo not shown) [Zileuton],LTB4 production by CS activation,completely blocked

# Reference: patent publication US9873878B2, “Compositions and methods for use in treating silicosis and lung cancer” (University of Louisville Research Foundation, Inc., priority 2015, dated 2018)
